From US6525070B2, “Bipiperidine derivatives as modulators of CCR3 activity and as H1 antagonists” (AstraZeneca AB, priority 2000, dated 2003)

`O=C(Nc1ccccc1)N1CCC(N2CCC(Oc3ccc(Cl)c(Cl)c3)CC2)CC1` [Compound 309 of Table IV, 4-(3,4-dichloro-phenoxy)-[1,4′]bipiperidinyl-1′-carboxylic acid phenylamide] showed a melting point of 111 to 112 °C.
`CS(=O)(=O)c1cccc(NC(=O)N2CCC(N3CCC(Oc4ccc(Cl)c(Cl)c4)CC3)CC2)c1` [Compound 54 of Table IV, 4-(3,4-dichloro-phenoxy)-[1,4′]bipiperidinyl-1′-carboxylic acid (3-methanesulfonyl-phenyl)-amide] gave a melting point of 73 to 75 °C.
In the case of `Cc1cc(Cl)ccc1OC1CCN(C2CCN(C(=O)c3cccc(S(C)(=O)=O)c3)CC2)CC1` [Compound 1 of Table IV, [4-(4-chloro-2-methyl-phenoxy)-[1,4′]bipiperidinyl-1′-yl]-(3-methanesulfonyl-phenyl)-methanone], the melting point was 64 to 65 °C.
Work on `O=S(=O)(c1ccc(-c2ccccn2)s1)N1CCC(N2CCC(Oc3ccc(F)c(F)c3)CC2)CC1` [Compound 3 of Table II, 4-(3,4-difluoro-phenoxy)-1′-(5-pyridin-2-yl-thiophene-2-sulfonyl)-[1,4′]bipiperidinyl] yielded a melting point of 126 to 127 °C.
`O=S(=O)(c1ccc(-c2ccccn2)s1)N1CCC(N2CCC(Oc3ccc(Cl)c(Cl)c3)CC2)CC1` [Compound 280 of Table I, 4-(3,4-dichloro-phenoxy)-1′-(5-pyridin-2-yl-thiophene-2-sulfonyl)-[1,4′]bipiperidinyl] gave a melting point of 149 to 150 °C.
`CC(=O)O.COc1cc(C(=O)N2CCC(N3CCC(Oc4ccc(Cl)c(Cl)c4)CC3)CC2)ccc1N` gave a melting point of 181 to 182 °C.
For `CS(=O)(=O)n1cc(C(=O)N2CCC(N3CCC(Oc4ccc(Cl)c(Cl)c4)CC3)CC2)c2ccccc21.Cl`, the melting point was 104 to 105 °C.
Molecule `CS(=O)(=O)c1ccccc1C(=O)N1CCC(N2CCC(Oc3ccc(Cl)c(Cl)c3)CC2)CC1` [Compound 293 of Table I, [4-(3,4-dichloro-phenoxy)-[1,4′]bipiperidinyl-1′-yl]-(2-methanesulfonyl-phenyl)-methanone] has a melting point of 78 to 80 °C.
Work on `CC(=O)O.CS(=O)(=O)c1cccc(C(=O)N2CCC(N3CCC(Oc4ccc(Cl)c(Cl)c4)CC3)CC2)c1` yielded a melting point of 111 to 112 °C.
Molecule `CS(=O)(=O)Nc1ccccc1C(=O)N1CCC(N2CCC(Oc3ccc(Cl)c(Cl)c3)CC2)CC1` [Compound 587 of Table I, N-{2-[4-(3,4-dichloro-phenoxy)-[1,4′]bipiperidinyl-1′-carbonyl]-phenyl}-methanesulfonamide] has a melting point of 219 to 220 °C.
`Cc1cccc(OC2CCN(C3CCN(C(=O)c4cccc(S(C)(=O)=O)c4)CC3)CC2)n1.O=C(O)C(F)(F)F` showed a melting point of 94 to 95 °C.
For `COc1cc(C(=O)N2CCC(N3CCC(Oc4ccc(Cl)cc4C)CC3)CC2)ccc1N.O=C(O)C(F)(F)F.O=C(O)C(F)(F)F`, the melting point was 110 to 111 °C.
Work on `CS(=O)(=O)c1cccc(C(=O)N2CCC(N3CCC(Oc4ccc(C(F)(F)F)cc4C#N)CC3)CC2)c1.O=C(O)C(F)(F)F` yielded a melting point of 140 to 142 °C.
`CS(=O)(=O)Nc1cccc(C(=O)N2CCC(N3CCC(Oc4ccc(Cl)c(Cl)c4)CC3)CC2)c1` [Compound 583 of Table I, N-{3-[4-(3,4-dichloro-phenoxy)-[1,4′]bipiperidinyl-1′-carbonyl]-phenyl}-methanesulfonamide] gave a melting point of 150 to 152 °C.
Molecule `CS(=O)(=O)c1ccc(C(=O)N2CCC(N3CCC(Oc4ccc(Cl)c(Cl)c4)CC3)CC2)s1` [Compound 332 of Table I, [4-(3,4-dichloro-phenoxy)-[1,4′]bipiperidinyl-1′-yl]-(2-methanesulfonyl-thiophen-5-yl)-methanone] has a melting point of 82 to 83 °C.
Molecule `CCn1cc(C(=O)N2CCC(N3CCC(Oc4ccc(Cl)c(Cl)c4)CC3)CC2)c(=O)c2ccc(C)nc21` [Compound 534 of Table I, 3-[4-(3,4-dichloro-phenoxy)-[1,4′]bipiperidinyl-1′-carbonyl]-1-ethyl-7-methyl-1H-[1,8]naphthyridin-4-one] has a melting point of 189 to 190 °C.
Molecule `O=C(C(CN1CCNCC1)c1ccccc1)N1CCC(N2CCC(Oc3ccc(Cl)c(Cl)c3)CC2)CC1` (centres unmarked) [Compound 595 of Table I, 1-[4-(3,4-dichloro-phenoxy)-[1,4′]bipiperidinyl-1′-yl]-2-phenyl-3-piperazin-1-yl-propan-1-one] has a melting point of 76 to 77 °C.
